Laboratory results reported in the supplement of paper PMC10307832.

What was measured:
Test in all cases: relative viability (nuclei count vs DMSO), 5 days (fraction); higher = more cells survive
[1] = compound: C1=CC=C2C(=C1)N=C(S2)C(C#N)C3=NC(=NC=C3)NCCC4=CN=CC=C4 + CS(=O)(=O)N1CCN(Cc2cc3nc(-c4cccc5[nH]ncc45)nc(N4CCOCC4)c3s2)CC1 [Pictilisib] (partner 1 µM)
Summary of the method: (§1)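 Relative viability was taken as the ratio of nuclei in treated wells to nuclei in vehicle wells. Lung cancer cell lines in 1536-well plates received compounds by pin tool one day after seeding, either one drug alone or a fixed anchor-drug dose plus five library-drug doses (not always all listed) in √10 steps. Nuclei were counted on 4× images after 5 days of treatment, and values are medians of duplicate plates.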

[2] = compound: COc1cc(N2CCC(N3CCN(C)CC3)CC2)ccc1Nc1ncc(Cl)c(Nc2ccccc2S(=O)(=O)C(C)C)n1 [NVP-TAE684] + COc1cc2c(Oc3ccc(NC(=O)C4(C(=O)Nc5ccc(F)cc5)CC4)cc3F)ccnc2cc1OCCCN1CCOCC1 [Foretinib] (partner 0.25 µM)
Summary of the method: as §1

[3] = compound: COc1cc2/c(=N/c3ccc(Br)cc3F)nc[nH]c2cc1OCC1CCN(C)CC1 [Vandetanib] + CC(=O)Nc1cccc(-n2c(=O)n(C3CC3)c(=O)c3c(Nc4ccc(I)cc4F)n(C)c(=O)c(C)c32)c1 [Trametinib] (partner 0.02 µM)
Summary of the method: as §1

[4] = compound: COc1cc2/c(=N/c3ccc(Br)cc3F)nc[nH]c2cc1OCC1CCN(C)CC1 [Vandetanib] + CCNC(=O)c1noc(-c2cc(C(C)C)c(O)cc2O)c1-c1ccc(CN2CCOCC2)cc1 [Luminespib] (partner 0.01 µM)
Summary of the method: as §1

Cell Line	relative viability ([1]; first compound 0.005 µM)	relative viability ([1]; first compound 0.01581 µM)	relative viability ([1]; first compound 0.05 µM)	relative viability ([1]; first compound 0.1581 µM)	relative viability ([1]; first compound 0.5 µM)	relative viability ([2]; first compound 0.2 µM)	relative viability ([2]; first compound 0.6325 µM)	relative viability ([2]; first compound 2 µM)	relative viability ([3]; first compound 0.02 µM)	relative viability ([3]; first compound 0.06325 µM)	relative viability ([3]; first compound 0.2 µM)	relative viability ([3]; first compound 0.6325 µM)	relative viability ([3]; first compound 2 µM)	relative viability ([4]; first compound 0.02 µM)	relative viability ([4]; first compound 0.06325 µM)	relative viability ([4]; first compound 0.2 µM)	relative viability ([4]; first compound 0.6325 µM)	relative viability ([4]; first compound 2 µM)
201T	0.7	0.69	0.621	0.662	0.698	1.12	0.96	0.403	0.715	0.68	0.751	0.696	0.676	1.03	1.05	1.01	0.99	0.974
A549	0.379	0.487	0.414	0.62	0.496	1.01		0.659										
A-427	0.723	0.664	0.726	0.844	0.878	0.952	1.1	0.498	0.734	0.662	0.745	0.737	0.742	0.892	0.822	0.927	1.08	0.926
ABC-1	0.84	0.605	0.758	0.87	0.725	1.07	0.742	0.349						0.673	0.616	0.401	1.2	0.594
BEN	0.59	0.509	0.584	0.576	0.561	0.736	0.509	0.555	1.09	1.01	0.985	1	0.798	0.448	0.333	0.469	0.297	0.351
CAL-12T	0.607			0.551	0.375	1.05	1.11	0.233	0.342	0.3	0.316	0.242	0.305	0.367	0.461	0.183	0.307	0.232
COR-L23	0.531	0.792	0.725	0.952	0.762	0.967	0.996	0.332	0.619	0.517	0.695	0.71	0.641	0.629	0.653	0.747	0.7	0.685
COR-L 105	0.345	0.367	0.384	0.516	0.428	1.02	1.4	0.897	0.42	0.405	0.427	0.383	0.416	0.643	0.694	0.275	0.854	0.604
Calu-6	0.74	0.885	0.938	0.932	0.806		0.878	0.671										
ChaGo-K-1	0.655		0.445	0.953	0.662	0.943	0.818	0.538	0.878	0.87	0.253	0.929	0.866	0.633	0.593	0.616	0.59	0.507
EBC-1	0.398	0.363	0.352	0.368	0.275	0.0925	0.117	0.107										
EKVX	0.497	0.422	0.45	0.479	0.457	0.51	0.806	0.537	0.37	0.289	0.281	0.294	0.212	0.878	0.86	0.956	0.827	0.65
EMC-BAC-2	0.492	0.512	0.484	0.572	0.501	0.958	0.977	0.467	1.01	0.844	0.872	0.902	0.822	1.15	1.11	0.216	1.27	1.07
EPLC-272H	0.271	0.277	0.288	0.352	0.267	0.756	0.639	0.247	0.303	0.242	0.289	0.293	0.255	0.265		0.272	0.756	0.276
H3255	0.493	0.449	0.47	0.553	0.535	0.882	0.804	0.631	0.614	0.577	0.604	0.463	0.245	0.982	0.795	0.829	0.728	0.501
HARA	0.324	0.349	0.368	0.611	0.298	0.886	0.619	0.517	0.515	0.522	0.574	0.857	0.523	0.814	0.561	0.074	0.9	0.512
HCC-15	0.733	0.74	0.72	0.855	0.685	1.09	0.951	0.453	0.386	0.362	0.37	0.395	0.369	0.343	0.293	0.0608	0.298	0.227
HCC-44	0.445	0.509	0.595	0.856	0.593				1.1	1.04	1.06	1.15	1.06	1.01	0.988	1.13	1.2	1.01
HCC-78	0.26	0.167	0.174	0.25	0.14	0.539	0.539	0.382	0.73	0.814	0.684	0.809	0.525					
HCC-366	0.138	0.196	0.181	0.159	0.117	1.07	0.935	0.685	0.265	0.339	0.343	0.362	0.269					
